Data reported in patent publication US11248024B2, “Noxa-derived, cell death-inducing peptide eMTD” (INDUSTRY-ACADEMIC COOPERATION FOUNDATION, CHOSUN UNIVERSITY, priority 2019, dated 2022).
Ends that are not written are not given here.

Legend:
CT26 = test: MTS assay, relative cell viability, CT26; type: cell-based, murine
Procedure: (§1) Individual cell lines (HeLa, CT26, and B16F10) were purchased from the Korean Cell Line Bank. Dulbecco's modified Eagle's medium (DMEM), trypsin-EDTA, fetal bovine serum (FBS), and Hank's balanced salt solution (HBSS) were products from Gibco (Thermo Fisher).
(§2) Each of the cell lines was cultured in DMEM supplemented with 10% FBS in an incubator maintained at 37° C. and 5% 002.
Examination was made to see whether the peptide has the activity of inducing cell death in other cancer cell lines. […]

HeLa cells [1] = test: Mitochondrial PTP opening, calcein AM and cobalt ions; type: cell-based, human; details: calcein AM 1 μM and cobalt ions 2 mM
Procedure: Mitochondria are known to open permeability transition pores (PTP) to allow cytosolic calcium influx. The observation that eMTDΔ4 (SEQ ID NO: 2) migrates to mitochondria and induces cytosolic calcium influx led to investigating the association of the action of eMTDΔ4 (SEQ ID NO: 2) with PTP. To this end, PTP opening was monitored using calcein AM and cobalt ions.
In brief, HeLa cells were grown on a Lab-Tek chamber glass slide one day before the experiment. Immediately before the experiment, the cells were stained with 1 μM of calcein AM and 2 mM of cobalt ions for 20 min and then with 0.1 μM of MitoTracker Red for 2 min. When PTP is opened, mitochondrial calcein AM meets cobalt ions so that the fluorescence of calcein AM is quenched.

HeLa [2] = test: MTS assay, relative cell viability, HeLa; type: cell-based, human; details: 10 μM, Table 4
HeLa cells [3] = test: Mitochondrial ROS generation, MitoSox, confocal; type: cell-based, human; details: MitoSox 5 μM, 10 min, 20 μM peptide (FIG. 8)
Procedure: In brief, HeLa cells were grown to 70% confluency on a Lab-Tek chamber glass slide one day before the experiment. The cells were stained for 10 min with 5 μM of the mitochondrial ROS indicator MitoSox (Invitrogen) in order to visualize ROS generation. Then, the cells were incubated with eMTDΔ4 (SEQ ID NO: 2) for 10 min during which confocal micrographic images were taken to monitor cell morphologies and ROS generation.

HeLa [4] = test: MTS assay, relative cell viability, HeLa; type: cell-based, human
Procedure: as §1, §2
For use in assaying the peptides eMTD (SEQ ID NO: 1) and eMTDΔ4 (SEQ ID NO: 2) synthesized in Example 1 for activity of inducing cell death, the cell line HeLa was grown to about 90% confluency in 96-well plates. The cells were washed once with HBSS buffer before treatment with the peptides of the present disclosure eMTD (SEQ ID NO: 1) and eMTDΔ4 (SEQ ID NO: 2) at concentrations of 0, 20, and 40 for one hour. Thereafter, the cells were incubated with an MTS assay agent (Promega) for one hour, followed by reading absorbance to calculate relative viability of cells.
(§3) Examination was made to see whether the peptide has the activity of inducing cell death in other cancer cell lines. In this regard, the cancer cell lines HeLa, CT26, and B16F10 were treated with eMTDΔ4 (SEQ ID NO: 2) at concentrations of 0, 20, and 40 μM.

HeLa cells [5] = test: Microscopic observation of morphological change in cells; type: cell-based, human; details: 20 μM, 3 min
Procedure: In order to observe morphological changes in cells in detail, the cells were incubated with 20 μM of the peptide eMTDΔ4 (SEQ ID NO: 2) and observed with the aid of a microscope (Leica). The results are depicted in FIG. 2.

[6] = Two-step assay, damage on lipid membrane of liposomes (TbCl3/DPA fluorescence); type: biochemical; details: for Relative Fluorescence Intensity: liposomes, excitation 276 nm, read at 490 nm
Procedure: In brief, DOPS, DOPE, and DOPC (Avanti Polar Lipids) were dissolved at the ratio of 2:4:3 in chloroform, followed by vaporization. The residue was again dissolved at the concentration of 2 mg/mL in TbCl3 buffer (15 mM TbCl3, 50 mM sodium citrate, 20 mM HEPES, 150 mM NaCl, pH 7.4). The lipid mixture was extruded by Mini extruder (Avanti Polar Lipids) with a 400 nm to prepare liposomes which were washed with washing buffer (150 mM NaCl, 20 mM HEPES, pH 7.4) and then resuspended in an assay buffer (50 DPA, […], 20 mM HEPES, pH 7.4). The suspension was plated into 96-well plates and treated with 0, 10, or 25 μM of eMTD (SEQ ID NO: 1) or eMTDΔ4 (SEQ ID NO: 2). After stimulation with 276 nm laser, fluorescence was read at 490 nm.

MDA-MB-231 cells = test: Atomic force microscopy of pores formed on the cell membrane; type: cell-based
Procedure: In this regard, MDA-MB-231 cells were treated with eMTDΔ4 (SEQ ID NO: 2) and pores formed on the cell membrane were observed using an atomic force microscope.

B16F10 = test: MTS assay, relative cell viability, B16F10; type: cell-based, murine
Procedure: as §1, §2, §3

Sequence: KLNFRQKLLNLISKLF [eMTDΔ4]
- Viability (%) (CT26; CT26, 10 μM): 69%
- Viability (%) (CT26; CT26, 20 μM): 21%
- induction of cell death (in words) (CT26; CT26, FIG. 3 and Table 4): induce cell death
- mitochondrial PTP opening (calcein AM fluorescence) (HeLa cells [1]): fluorescence of mitochondrial calcein AM was quenched
- Viability (%) (HeLa [2]): 47%
- mitochondrial ROS level (HeLa cells [3]): abruptly increased in ROS level just after the cell membrane bubbling
- Viability (%) (HeLa [4]; 20 μM, Table 4): 11%
- Viability (%) (HeLa [4]; 20 μM, one hour treatment, Table 3): 53%
- Viability (%) (HeLa [4]; 40 μM, one hour treatment, Table 3): 40%
- cell death activity (in words) (HeLa [4]; FIG. 1 and Table 3): potent cell death activity
- induction of cell death (in words) (HeLa [4]; FIG. 3 and Table 4): induce cell death
- morphological change in cells (HeLa cells [5]): most of the cells were observed to undergo necrosis with the consequent rupture of cell membranes after 3 min
- liposome lipid membrane damage (in words) ([6]; FIGS. 10A to 10C and Table 6): higher fluorescence intensity was detected
- Relative Fluorescence Intensity ([6]; 10 μM): 25%
- Relative Fluorescence Intensity ([6]; 25 μM): 51%
- Counts of membrane pores (MDA-MB-231 cells; Length 0.675~0.975, t = 30 sec): 38.03
- Counts of membrane pores (MDA-MB-231 cells; Length 0.675~0.975, t = 2 min): 20.63
- Counts of membrane pores (MDA-MB-231 cells; Length 0.675~0.975, t = 5 min): 14.81
- Counts of membrane pores (MDA-MB-231 cells; Length 0.675~0.975, t = 40 min): 2.5
- Counts of membrane pores (MDA-MB-231 cells; Length 1.025~1.325, t = 30 sec): 43.66
- Counts of membrane pores (MDA-MB-231 cells; Length 1.025~1.325, t = 2 min): 38.1
- Counts of membrane pores (MDA-MB-231 cells; Length 1.025~1.325, t = 5 min): 39.51
- Counts of membrane pores (MDA-MB-231 cells; Length 1.025~1.325, t = 40 min): 22.5
- Counts of membrane pores (MDA-MB-231 cells; Length 1.375~1.675, t = 30 sec): 9.859
- Counts of membrane pores (MDA-MB-231 cells; Length 1.375~1.675, t = 2 min): 20.63
- Counts of membrane pores (MDA-MB-231 cells; Length 1.375~1.675, t = 5 min): 20.99
- Counts of membrane pores (MDA-MB-231 cells; Length 1.375~1.675, t = 40 min): 22.5
- Counts of membrane pores (MDA-MB-231 cells; Length 1.725~2.025, t = 30 sec): 4.225
- Counts of membrane pores (MDA-MB-231 cells; Length 1.725~2.025, t = 2 min): 14.29
- Counts of membrane pores (MDA-MB-231 cells; Length 1.725~2.025, t = 5 min): 13.58
- Counts of membrane pores (MDA-MB-231 cells; Length 1.725~2.025, t = 40 min): 22.5
- Counts of membrane pores (MDA-MB-231 cells; Length 2.075~2.725, t = 30 sec): 2.817
- Counts of membrane pores (MDA-MB-231 cells; Length 2.075~2.725, t = 2 min): 6.349
- Counts of membrane pores (MDA-MB-231 cells; Length 2.075~2.725, t = 5 min): 9.877
- Counts of membrane pores (MDA-MB-231 cells; Length 2.075~2.725, t = 40 min): 22.5
- Counts of membrane pores (MDA-MB-231 cells; Length 2.775<, t = 30 sec): 0
- Counts of membrane pores (MDA-MB-231 cells; Length 2.775<, t = 2 min): 0
- Counts of membrane pores (MDA-MB-231 cells; Length 2.775<, t = 5 min): 1.235
- Counts of membrane pores (MDA-MB-231 cells; Length 2.775<, t = 40 min): 7.5
- Counts of membrane pores (MDA-MB-231 cells; Length >0.625, t = 30 sec): 1.408
- Counts of membrane pores (MDA-MB-231 cells; Length >0.625, t = 2 min): 0
- Counts of membrane pores (MDA-MB-231 cells; Length >0.625, t = 5 min): 0
- Counts of membrane pores (MDA-MB-231 cells; Length >0.625, t = 40 min): 0
- pore formation on cell membrane (in words) (MDA-MB-231 cells; MDA-MB-231, FIG. 10d and Table 7): larger pores were formed with time
- Viability (%) (B16F10; B16F10, 10 μM): 68%
- Viability (%) (B16F10; B16F10, 20 μM): 33%
- induction of cell death (in words) (B16F10; B16F10, FIG. 3 and Table 4): induce cell death
